Here are results for 4 compounds from patent US20210283261A1, “Compositions and Methods for Treating ALK-Mediated Cancer” (ICAHN SCHOOL OF MEDICINE AT MOUNT SINAI, priority 2017, published 2021).

SMILES strings stand for the structures.

One data set addresses T1, NPM-ALK fusion protein (Homo sapiens, UniProt Q9UM73).
T1 construct: endogenous in cells; host or cells: SU-DHL-1; the other entry of the earlier key: NPM1 (P06748, Nucleophosmin)
Put plainly: Western blot of NPM-ALK fusion protein levels in SU-DHL-1 cells. The data set is classed as cell-based. Conditions: for effect on NPM-ALK fusion protein levels, time dependence: SU-DHL-1 cells, 0, 2, 4, 8, 16 and 24 h; for Dmax at 0.03 µM / reversibility of induced ALK fusion protein degradation after washout / rescue of induced NPM-ALK degradation by pomalidomide, MLN4924 and MG-132 / rescue of induced ALK fusion protein degradation by MG-132 and MLN4924 / significantly reduced ALK fusion protein levels (degraders vs negative controls): SU-DHL-1 cells; for Dmax at 0.03 µM: 30 nM, Western blot, read-out: ALK fusion protein degradation, SU-DHL-1 (30 nM); for reversibility of induced ALK fusion protein degradation after washout: 100 nM for 2 h, PBS wash, fresh medium; for effect on NPM-ALK fusion protein levels, concentration dependence: SU-DHL-1 cells, 1, 3, 10, 30 or 100 nM; for effect on NPM-ALK fusion protein levels, concentration dependence / effect on ALK fusion protein levels, concentration dependence / significantly reduced ALK fusion protein levels (degraders vs negative controls): 16 h; for rescue of induced NPM-ALK degradation by pomalidomide, MLN4924 and MG-132 / rescue of induced ALK fusion protein degradation by MG-132 and MLN4924: 2 h pre-treatment, then 100 nM compound for 6 h; for effect on ALK fusion protein levels, concentration dependence: SU-DHL-1 cells, 0, 10, 20, 40, 80 and 160 nM. The essentials: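 SU-DHL-1 cells treated with DMSO or compound serial dilutions for 16 h, or at 30 nM or 100 nM for varying times. NPM-ALK and phospho-ALK (Tyr1507) levels measured by Western blot and normalized to GAPDH.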
On the technique in general: In western blotting, separated proteins are transferred to a membrane and probed.

Data set [1] addresses T2, EML4-ALK v3 fusion protein (Homo sapiens, UniProt Q9UM73).
T2 construct: endogenous in cells; host or cells: NCI-H2228
In words: Western blot of EML4-ALK v3 fusion protein levels in NCI-H2228 cells. To be noted: for effect on EML4-ALK fusion protein levels, time dependence: NCI-H2228 cells, 0, 2, 4, 8, 16 and 24 h; for effect on EML4-ALK fusion protein levels, concentration dependence: NCI-H2228 cells, 1, 3, 10, 30 or 100 nM, 16 h. The format is cell-based. As for the experimental part: Cells were cultured in a 37° C. incubator with 5% CO2.
Cells were washed with cold PBS once and lysed in 1× Laemmli loading buffer directly. […] Membrane was blocked in 5% milk in Tris-buffered saline and Tween 20 (TBST) for 1 h at room temperature, followed by incubation with a primary antibody overnight at 4° C., and a horseradish peroxidase (HRP)-conjugated secondary antibody for 1 h at room temperature. The membrane was imaged by a ChemiDoc MP imaging system (BIO-RAD). Antibodies against GAPDH (abeam), Phospho-ALK (Tyr1507), ALK (Cell Signaling Technology), Tubulin (Santa Cruz) were purchased commercially.
Cells were 70% confluent and treated with DMSO or indicated serial dilutions of compounds for 16 h. The EML4-ALK fusion protein levels were determined by Western blot and normalized against GPADH (right panel).

Another data set has as its target T3, Phospho-ALK (Tyr1507) (Homo sapiens, UniProt Q9UM73).
T3 construct: endogenous in cells; host or cells: SU-DHL-1; the other entry of the earlier key: NPM1 (P06748, Nucleophosmin)
In words: Western blot of ALK phosphorylation at Tyr1507 (ALK activity) in SU-DHL-1 cells. The data set is classed as cell-based. Conditions: 3 nM, 16 h. Here is the method:
Cells were washed with cold PBS once and lysed in 1× Laemmli loading buffer directly. Lysates were heated at 99° C. for […], and resolved on 4-15% precast SDS-PAGE (BIO-RAD) and transferred onto PVDF membrane. Membrane was blocked in 5% milk in Tris-buffered saline and Tween 20 (TBST) for 1 h at room temperature, followed by incubation with a primary antibody overnight at 4° C., and a horseradish peroxidase (HRP)-conjugated secondary antibody for 1 h at room temperature. The membrane was imaged by a ChemiDoc MP imaging system (BIO-RAD). Antibodies against GAPDH (abeam), Phospho-ALK (Tyr1507), ALK (Cell Signaling Technology), Tubulin (Santa Cruz) were purchased commercially.
SU-DHL-1 cells were seeded in 12-well plates at a density of 4×10^5/mL and treated with DMSO or indicated serial dilutions of compounds for 16 h. The NPM-ALK fusion protein levels were determined by Western blot and normalized against GPADH (right panel).

Another data set concerns SU-DHL-1 cells. In words: Cell viability assay in SU-DHL-1 cells. The data set is classed as cell-based. Conditions: for cell viability inhibition compared with negative controls / inhibition of cell viability: 3 days; for cell viability inhibition compared with negative controls / GI50: CellTiter-Glo; for GI50: Homo sapiens, 60 h, 2.5 days, read-out: GI50 (drug concentration that results in 50% growth inhibition). Here is the method:
SU-DHL-1 cells were seeded in 96-well plates at a density of 1×10^4 cells per well, in triplicate. Treated cells with DMSO or indicated serial dilutions of compounds for 2.5 days. Cell growth/survival was measured by using the CellTiter-Glo luminescent cell viability assay following the manufacturer's instructions (Promega) or CCK8 cell viability assay (Sigma). Data was analyzed by using the GraphPad Prism software, Error bars represent ±SD for triplicate experiments.
SU-DHL-1 cells were seeded in 96-well plates at a density of 1×10^4 cells per well, in triplicate. Treated cells with DMSO or indicated serial dilutions of compounds for 2.5 days. Cell growth/survival was measured by using the CellTiter-Glo luminescent cell viability assay. Data was analyzed by using the GraphPad Prism software, Error bars represent ±SD for triplicate experiments (left panel).
SU-DHL-1 cells were seeded in 96-well plates at a density of 5000 cells per well, in triplicate. The cells were treated with DMSO or indicated serial dilutions of compounds for 3 days. Cell growth was measured using the CellTiter-Glo luminescent cell viability assay. Data were analyzed using the GraphPad Prism.
(§1) SU-DHL-1 and NCI-3122 cells were treated with DMSO or indicated serial dilutions of compounds for 3 days. Data were analyzed using the GraphPad Prism.
(Cellular ATP, detected with luciferase, serves as a proxy for viable cell number.)

The test system of a further data set is ALK. In words: Characterization of ALK degraders in ALCL and NSCLC cells (summary). To be noted: summary statement. The format is cell-based. An excerpt:
Specific exemplary ALK degraders/disruptors were characterized in various different anaplastic large cell lymphoma (ALCL) cells and non-small cell lung cancer (NSCLC) cells (Examples 4-19, FIGS. 1-18). […] This efficacy in suppressing ALK expression and ALK activity correlated with efficacy in inhibiting cancer cell proliferation.

In a further data set the test system is NCI-H3122 cells. In words: Cell viability assay in NCI-H3122 cells. The data set is classed as cell-based. To be noted: 3 days. Here is the method:
SU-DHL-1, NCI-H3122 and NCI-H2228 cells were cultured in RPMI-1640 medium supplemented with 10% fetal bovine serum, 50 μg/mL penicillin and streptomycin. Cells were cultured in a 37° C. incubator with 5% CO2.
as §1

The target of another data set is T4, ALK fusion protein (Homo sapiens, UniProt Q9UM73).
T4 construct: endogenous in cells; host or cells: NCI-H3122; the other entry of the earlier key: EML4 (Q9HC35, Echinoderm microtubule-associated protein-like 4)
T4 sequence (Q9UM73 with tags, fused parts or gaps): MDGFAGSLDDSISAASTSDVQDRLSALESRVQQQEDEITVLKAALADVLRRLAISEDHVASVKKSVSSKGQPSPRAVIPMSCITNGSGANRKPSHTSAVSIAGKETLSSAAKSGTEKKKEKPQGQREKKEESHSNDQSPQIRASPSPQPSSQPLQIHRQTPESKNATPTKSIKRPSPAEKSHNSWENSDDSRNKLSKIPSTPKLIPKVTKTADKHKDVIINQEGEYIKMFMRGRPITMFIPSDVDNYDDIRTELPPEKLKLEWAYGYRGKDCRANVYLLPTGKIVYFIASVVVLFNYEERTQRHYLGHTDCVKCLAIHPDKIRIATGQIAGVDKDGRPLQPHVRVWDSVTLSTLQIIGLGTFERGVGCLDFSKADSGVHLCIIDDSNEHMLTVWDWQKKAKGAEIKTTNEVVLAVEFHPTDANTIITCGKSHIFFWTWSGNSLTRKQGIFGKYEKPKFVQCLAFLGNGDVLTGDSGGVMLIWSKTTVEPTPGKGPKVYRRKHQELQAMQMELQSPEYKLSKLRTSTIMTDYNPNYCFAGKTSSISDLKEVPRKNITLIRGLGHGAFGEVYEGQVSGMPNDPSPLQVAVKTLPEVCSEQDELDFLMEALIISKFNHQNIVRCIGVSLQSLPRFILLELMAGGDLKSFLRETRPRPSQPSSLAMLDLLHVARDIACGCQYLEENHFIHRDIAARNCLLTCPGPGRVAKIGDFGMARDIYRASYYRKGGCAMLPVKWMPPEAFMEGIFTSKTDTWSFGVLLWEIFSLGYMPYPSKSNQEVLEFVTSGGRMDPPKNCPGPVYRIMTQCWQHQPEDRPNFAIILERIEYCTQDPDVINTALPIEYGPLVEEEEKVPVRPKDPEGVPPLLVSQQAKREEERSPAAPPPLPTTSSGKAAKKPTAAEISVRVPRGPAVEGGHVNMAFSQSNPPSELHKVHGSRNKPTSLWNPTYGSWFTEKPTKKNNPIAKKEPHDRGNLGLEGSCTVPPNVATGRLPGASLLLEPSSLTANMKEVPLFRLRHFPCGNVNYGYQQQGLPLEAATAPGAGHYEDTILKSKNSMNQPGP
Put plainly: Western blot of ALK fusion protein levels in NCI-H3122 cells. The format is cell-based. Conditions: for effect on ALK fusion protein levels, concentration dependence: NCI-H3122 cells, 0, 50, 100, 200, 400 and 800 nM; for effect on ALK fusion protein levels, concentration dependence / significantly reduced ALK fusion protein levels (degraders vs negative controls): 16 h.

Data set [2] can be described thus: Standard PK study in mice, plasma concentrations. To be noted: single 50 mg/kg intraperitoneal (IP) injection, 30 min to 12 h. The format is in vivo, male Swiss Albino mice. Here is the method:
Standard PK studies were conducted using male Swiss Albino mice. […] Error bars represent ±SD for triplicate samples.

T2 sequence (Q9UM73 1058-1620 limits assumed): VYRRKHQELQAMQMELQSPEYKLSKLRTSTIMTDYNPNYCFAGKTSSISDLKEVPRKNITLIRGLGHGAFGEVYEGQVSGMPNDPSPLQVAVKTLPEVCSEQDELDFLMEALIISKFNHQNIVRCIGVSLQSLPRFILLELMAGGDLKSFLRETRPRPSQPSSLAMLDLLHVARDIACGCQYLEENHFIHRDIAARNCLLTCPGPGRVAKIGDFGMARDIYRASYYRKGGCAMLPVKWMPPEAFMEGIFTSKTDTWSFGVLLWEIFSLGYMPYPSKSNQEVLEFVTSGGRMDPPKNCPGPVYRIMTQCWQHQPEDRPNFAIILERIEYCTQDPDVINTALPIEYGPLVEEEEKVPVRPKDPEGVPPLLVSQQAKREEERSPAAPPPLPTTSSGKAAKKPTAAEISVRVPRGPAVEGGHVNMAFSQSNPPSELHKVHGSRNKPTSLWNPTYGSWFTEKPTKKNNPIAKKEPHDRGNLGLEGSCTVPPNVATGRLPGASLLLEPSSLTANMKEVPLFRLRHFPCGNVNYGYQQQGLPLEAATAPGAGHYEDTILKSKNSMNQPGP
T1 sequence (Q9UM73 with tags, fused parts or gaps): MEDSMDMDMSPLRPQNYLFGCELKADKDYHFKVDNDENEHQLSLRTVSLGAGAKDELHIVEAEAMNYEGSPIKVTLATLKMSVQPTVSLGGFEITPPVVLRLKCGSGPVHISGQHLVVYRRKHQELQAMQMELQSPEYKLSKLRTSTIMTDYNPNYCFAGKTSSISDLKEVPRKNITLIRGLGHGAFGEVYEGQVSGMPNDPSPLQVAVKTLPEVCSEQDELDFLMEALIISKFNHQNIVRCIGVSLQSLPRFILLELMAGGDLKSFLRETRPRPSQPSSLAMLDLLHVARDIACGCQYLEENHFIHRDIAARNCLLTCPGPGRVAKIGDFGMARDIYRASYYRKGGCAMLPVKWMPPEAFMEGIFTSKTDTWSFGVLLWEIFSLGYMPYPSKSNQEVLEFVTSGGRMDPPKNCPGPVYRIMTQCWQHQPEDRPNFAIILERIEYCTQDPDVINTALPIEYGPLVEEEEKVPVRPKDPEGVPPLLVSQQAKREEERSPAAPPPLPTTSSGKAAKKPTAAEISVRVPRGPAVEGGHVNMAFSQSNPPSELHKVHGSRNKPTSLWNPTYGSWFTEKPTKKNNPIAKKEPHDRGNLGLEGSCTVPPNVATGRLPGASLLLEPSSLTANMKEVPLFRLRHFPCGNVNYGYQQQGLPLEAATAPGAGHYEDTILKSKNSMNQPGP

Take `Cc1cc(Nc2ncc(Cl)c(Nc3ccccc3S(=O)(=O)C(C)C)n2)c(OC(C)C)cc1C1CCN(CC(=O)NCCOCCOCCOCCOCCOCCNc2cccc3c2C(=O)N(C2CCC(=O)NC2=O)C3=O)CC1` (centres unmarked) [CZ40-77, 2-(4-(4-((5-Chloro-4-((2-(isopropylsulfonyl)phenyl)amino)pyrimidin-2-yl)amino)-5-isopropoxy-2-methylphenyl)piperidin-1-yl)-N-(17-((2-(2,6-dioxopiperidin-3-yl)-1,3-dioxoisoindolin-4-yl)amino)-3,6,9,12,15-pentaoxaheptadecyl)acetamide]: on NPM-ALK fusion protein, the “effect on NPM-ALK fusion protein levels, time dependence” value is “time-dependently reduced”; the Dmax at 0.03 µM was over 80%; the “reversibility of induced ALK fusion protein degradation after washout” value is “Reversible”; the “effect on NPM-ALK fusion protein levels, concentration dependence” value is “concentration-dependently reduced”. In addition, the “rescue of induced NPM-ALK degradation by pomalidomide, MLN4924 and MG-132” value at NPM-ALK fusion protein is listed as “significantly rescued”. Besides, in data set [1], the “effect on EML4-ALK fusion protein levels, time dependence” value is “time-dependently reduced” and the “effect on EML4-ALK fusion protein levels, concentration dependence” value is recorded as “concentration-dependently reduced”. The “inhibition of ALK activity (phosphorylation at Tyr1507)” value on Phospho-ALK (Tyr1507) is “strongly inhibited”. Further, in the data set with SU-DHL-1 cells, the “cell viability inhibition compared with negative controls” value is on record as “better cell viability inhibition” and the GI50 is under 40 nM. Besides, in the data set with ALK, the “suppressing both ALK expression and ALK activity” value was “especially effective”.
For `Cc1cc(Nc2ncc(Cl)c(Nc3ccccc3S(=O)(=O)C(C)C)n2)c(OC(C)C)cc1C1CCN(C(=O)CCCC(=O)N[C@H](C(=O)N2C[C@H](O)C[C@H]2C(=O)NCc2ccc(-c3scnc3C)cc2)C(C)(C)C)CC1` [CZ47-23, (2S,4R)-1-((S)-2-(5-(4-(4-((5-Chloro-4-((2-(isopropylsulfonyl)phenyl)amino)pyrimidin-2-yl)amino)-5-isopropoxy-2-methylphenyl)piperidin-1-yl)-5-oxopentanamido)-3,3-dimethylbutanoyl)-4-hydroxy-N-(4-(4-methylthiazol-5-yl)benzyl)pyrrolidine-2-carboxamide], the “inhibition of cell viability” value in the data set with NCI-H3122 cells and with SU-DHL-1 cells was “significantly inhibited” each time. Also, at ALK fusion protein (NCI-H3122, NCI-H3122 cells, 500 nM, Western blot, read-out: ALK fusion protein degradation, NCI-H3122 (500 nM)), the Dmax at 0.5 µM was over 80%. The “effect on ALK fusion protein levels, concentration dependence” value at ALK fusion protein and at NPM-ALK fusion protein was “concentration-dependently reduced” in each case. In addition, the “significantly reduced ALK fusion protein levels (degraders vs negative controls)” value at ALK fusion protein (NCI-H3122 cells) and on NPM-ALK fusion protein was “significantly reduced” in each case. Also, the “rescue of induced ALK fusion protein degradation by MG-132 and MLN4924” value on NPM-ALK fusion protein is listed as “significantly rescued”. Further, in the data set on ALK, the “suppressing both ALK expression and ALK activity” value is “especially effective”.
For `Cc1cc(Nc2ncc(Cl)c(Nc3ccccc3S(=O)(=O)C(C)C)n2)c(OC(C)C)cc1C1CCN(CC(=O)NCCNc2cccc3c2C(=O)N(C2CCC(=O)NC2=O)C3=O)CC1` (centres unmarked) [CZ40-78, 2-(4-(4-((5-Chloro-4-((2-(isopropylsulfonyl)phenyl)amino)pyrimidin-2-yl)amino)-5-isopropoxy-2-methylphenyl)piperidin-1-yl)-N-(2-((2-(2,6-dioxopiperidin-3-yl)-1,3-dioxoisoindolin-4-yl)amino)ethyl)acetamide], on NPM-ALK fusion protein, the “effect on NPM-ALK fusion protein levels, time dependence” value was “time-dependently reduced”; the Dmax at 0.03 µM was over 80%; the “reversibility of induced ALK fusion protein degradation after washout” value is listed as “Reversible”; the “effect on NPM-ALK fusion protein levels, concentration dependence” value is reported as “concentration-dependently reduced”. For the same compound, the “rescue of induced NPM-ALK degradation by pomalidomide, MLN4924 and MG-132” value on NPM-ALK fusion protein is listed as “significantly rescued”. Besides, in data set [1], the “effect on EML4-ALK fusion protein levels, time dependence” value is “time-dependently reduced” and the “effect on EML4-ALK fusion protein levels, concentration dependence” value is given as “concentration-dependently reduced”. Further, in data set [2], the bioavailability in mice entry is “Bioavailable”. Also, on Phospho-ALK (Tyr1507), the “inhibition of ALK activity (phosphorylation at Tyr1507)” value is “strongly inhibited”. Further, in the data set with SU-DHL-1 cells, the “cell viability inhibition compared with negative controls” value is listed as “better cell viability inhibition” and the GI50 was under 40 nM. Besides, the “suppressing both ALK expression and ALK activity” value with ALK is listed as “especially effective”.
On to `Cc1cc(Nc2ncc(Cl)c(Nc3ccccc3S(=O)(=O)C(C)C)n2)c(OC(C)C)cc1C1CCN(C(=O)COCCOCC(=O)N[C@H](C(=O)N2C[C@H](O)C[C@H]2C(=O)NCc2ccc(-c3scnc3C)cc2)C(C)(C)C)CC1` [CZ47-15, (2S,4R)-1-((S)-2-(2-(2-(2-(4-(4-((5-Chloro-4-((2-(isopropylsulfonyl)phenyl)amino)pyrimidin-2-yl)amino)-5-isopropoxy-2-methylphenyl)piperidin-1-yl)-2-oxoethoxy)ethoxy)acetamido)-3,3-dimethylbutanoyl)-4-hydroxy-N-(4-(4-methylthiazol-5-yl)benzyl)pyrrolidine-2-carboxamide], for which the “inhibition of cell viability” value with NCI-H3122 cells and in the data set on SU-DHL-1 cells was “significantly inhibited” in each case. Also, the “effect on ALK fusion protein levels, concentration dependence” value on ALK fusion protein and on NPM-ALK fusion protein was “concentration-dependently reduced” each time. In addition, the “ALK fusion protein degradation, NCI-H3122 (500 nM)” value at ALK fusion protein (NCI-H3122 cells, 500 nM, Western blot) is “++ (Protein degradation >80%)”. Further, the “significantly reduced ALK fusion protein levels (degraders vs negative controls)” value at ALK fusion protein (NCI-H3122 cells) and on NPM-ALK fusion protein was “significantly reduced” in each case. For the same compound, at NPM-ALK fusion protein, the “rescue of induced ALK fusion protein degradation by MG-132 and MLN4924” value is “significantly rescued”. In addition, the “suppressing both ALK expression and ALK activity” value in the data set with ALK is recorded as “especially effective”.
